Source: ChEMBL document CHEMBL3994622, “Design and synthesis of new RAF kinase-inhibiting antiproliferative quinoline derivatives. Part 2: Diarylurea derivatives” (Eur J Med Chem, 2017)

Experiments:
Type in all cases: functional
[1] = system: U-251; experiment: Growth inhibition of human U251 cells assessed as cell growth at 0.01 uM incubated for 48 hrs by sulforhodamine B assay relative to control; details: U-251, 48 h, read-out: Activity
[2] = system: A498; experiment: Growth inhibition of human A498 cells assessed as cell growth at 0.01 uM incubated for 48 hrs by sulforhodamine B assay relative to control; details: A498, 48 h, read-out: Activity
[3] = system: ACHN; experiment: Growth inhibition of human ACHN cells assessed as cell growth at 0.1 uM incubated for 48 hrs by sulforhodamine B assay relative to control; details: read-out: Activity
[4] = system: SF-539; experiment: Growth inhibition of human SF539 cells assessed as cell growth at 0.01 uM incubated for 48 hrs by sulforhodamine B assay relative to control; details: SF-539, 48 h, read-out: Activity
[5] = system: MDA-MB-231; experiment: Growth inhibition of human MDA-MB-231 cells assessed as cell growth at 1 uM incubated for 48 hrs by sulforhodamine B assay relative to control; details: MDA-MB-231, 48 h, read-out: Activity
[6] = system: TK-10; experiment: Growth inhibition of human TK10 cells assessed as cell growth at 10 uM incubated for 48 hrs by sulforhodamine B assay relative to control; details: TK-10, 48 h, read-out: Activity
[7] = system: SF-268; experiment: Growth inhibition of human SF268 cells assessed as cell growth at 0.1 uM incubated for 48 hrs by sulforhodamine B assay relative to control; details: SF-268, 48 h, read-out: Activity
[8] = system: Malme-3M; experiment: Growth inhibition of human MALME-3M cells assessed as cell growth at 0.1 uM incubated for 48 hrs by sulforhodamine B assay relative to control; details: read-out: Activity
[9] = system: NCI-H522; experiment: Growth inhibition of human NCI-H522 cells assessed as cell growth at 100 uM incubated for 48 hrs by sulforhodamine B assay relative to control; details: NCI-H522, 48 h, read-out: Activity
[10] = system: RPMI-8226; experiment: Growth inhibition of human RPMI8226 cells assessed as cell growth at 0.01 uM incubated for 48 hrs by sulforhodamine B assay relative to control; details: RPMI-8226, 48 h, read-out: Activity
[11] = system: NCI-H23; experiment: Growth inhibition of human NCI-H23 cells assessed as cell growth at 0.1 uM incubated for 48 hrs by sulforhodamine B assay relative to control; details: NCI-H23, 48 h, read-out: Activity
[12] = system: 786-0; experiment: Growth inhibition of human 786-0 cells assessed as cell growth at 1 uM incubated for 48 hrs by sulforhodamine B assay relative to control; details: 786-0, 48 h, read-out: Activity
[13] = system: SK-OV-3; experiment: Growth inhibition of human SKOV3 cells assessed as cell growth at 0.1 uM incubated for 48 hrs by sulforhodamine B assay relative to control; details: SK-OV-3, 48 h, read-out: Activity
[14] = system: NCI-H322M; experiment: Growth inhibition of human NCI-H322M cells assessed as cell growth at 100 uM incubated for 48 hrs by sulforhodamine B assay relative to control; details: read-out: Activity
[15] = system: HOP-92; experiment: Growth inhibition of human HOP92 cells assessed as cell growth at 1 uM incubated for 48 hrs by sulforhodamine B assay relative to control; details: HOP-92, 48 h, read-out: Activity
[16] = system: UACC-62; experiment: Growth inhibition of human UACC62 cells assessed as cell growth at 0.01 uM incubated for 48 hrs by sulforhodamine B assay relative to control; details: UACC-62, 48 h, read-out: Activity
[17] = system: SF-268; experiment: Growth inhibition of human SF268 cells assessed as cell growth at 0.03 uM incubated for 48 hrs by sulforhodamine B assay relative to control; details: SF-268, 48 h, read-out: Activity
[18] = system: SF-295; experiment: Growth inhibition of human SF295 cells assessed as cell growth at 3 uM incubated for 48 hrs by sulforhodamine B assay relative to control; details: SF-295, 48 h, read-out: Activity
[19] = system: HOP-92; experiment: Growth inhibition of human HOP92 cells assessed as cell growth at 30 uM incubated for 48 hrs by sulforhodamine B assay relative to control; details: HOP-92, 48 h, read-out: Activity
[20] = system: RPMI-8226; experiment: Growth inhibition of human RPMI8226 cells assessed as cell growth at 0.003 uM incubated for 48 hrs by sulforhodamine B assay relative to control; details: RPMI-8226, 48 h, read-out: Activity
[21] = system: HCC 2998; experiment: Growth inhibition of human HCC2998 cells assessed as cell growth at 0.03 uM incubated for 48 hrs by sulforhodamine B assay relative to control; details: HCC 2998, 48 h, read-out: Activity
[22] = system: K562; experiment: Growth inhibition of human K562 cells assessed as cell growth at 3 uM incubated for 48 hrs by sulforhodamine B assay relative to control; details: K562, 48 h, read-out: Activity
[23] = system: SK-MEL-28; experiment: Growth inhibition of human SK-MEL-28 cells assessed as cell growth at 30 uM incubated for 48 hrs by sulforhodamine B assay relative to control; details: SK-MEL-28, 48 h, read-out: Activity
[24] = system: SN12C; experiment: Growth inhibition of human SN12C cells assessed as cell growth at 3 uM incubated for 48 hrs by sulforhodamine B assay relative to control; details: read-out: Activity
[25] = system: CAKI-1; experiment: Growth inhibition of human Caki1 cells assessed as cell growth at 30 uM incubated for 48 hrs by sulforhodamine B assay relative to control; details: CAKI-1, 48 h, read-out: Activity
[26] = system: SF-268; experiment: Growth inhibition of human SF268 cells assessed as cell growth at 30 uM incubated for 48 hrs by sulforhodamine B assay relative to control; details: SF-268, 48 h, read-out: Activity
[27] = system: A549; experiment: Growth inhibition of human A549/ATCC cells assessed as cell growth at 3 uM incubated for 48 hrs by sulforhodamine B assay relative to control; details: A549, 48 h, read-out: Activity
[28] = system: NCI-H522; experiment: Growth inhibition of human NCI-H522 cells assessed as cell growth at 0.03 uM incubated for 48 hrs by sulforhodamine B assay relative to control; details: NCI-H522, 48 h, read-out: Activity
[29] = system: SW-620; experiment: Growth inhibition of human SW620 cells assessed as cell growth at 0.3 uM incubated for 48 hrs by sulforhodamine B assay relative to control; details: SW-620, 48 h, read-out: Activity
[30] = system: HL-60(TB); experiment: Growth inhibition of human HL-60(TB) cells assessed as cell growth at 0.003 uM incubated for 48 hrs by sulforhodamine B assay relative to control; details: HL-60, 48 h, read-out: Activity
[31] = system: RPMI-8226; experiment: Growth inhibition of human RPMI8226 cells assessed as cell growth at 0.3 uM incubated for 48 hrs by sulforhodamine B assay relative to control; details: RPMI-8226, 48 h, read-out: Activity
[32] = system: SNB-75; experiment: Growth inhibition of human SNB75 cells assessed as cell growth at 0.03 uM incubated for 48 hrs by sulforhodamine B assay relative to control; details: SNB-75, 48 h, read-out: Activity
[33] = system: KM12; experiment: Growth inhibition of human KM12 cells assessed as cell growth at 0.03 uM incubated for 48 hrs by sulforhodamine B assay relative to control; details: KM12, 48 h, read-out: Activity
[34] = system: MDA-MB-435; experiment: Growth inhibition of human MDA-MB-435 cells assessed as cell growth at 0.03 uM incubated for 48 hrs by sulforhodamine B assay relative to control; details: MDA-MB-435, 48 h, read-out: Activity

Structure (SMILES)	growth at 0.01 µM [1]	growth at 0.01 µM [2]	growth at 0.1 µM [3]	growth at 0.01 µM [4]	growth at 1 µM [5]	growth at 10 µM [6]	growth at 0.1 µM [7]	growth at 0.1 µM [8]	growth at 100 µM [9]	growth at 0.01 µM [10]	growth at 0.1 µM [11]	growth at 1 µM [12]	growth at 0.1 µM [13]	growth at 100 µM [14]	growth at 1 µM [15]	growth at 0.01 µM [16]	growth at 0.03 µM [17]	growth at 3 µM [18]	growth at 30 µM [19]	growth at 0.003 µM [20]	further results
COc1cc2cc(Oc3ccc(NC(=O)Nc4ccc(Cl)c(Cl)c4)cc3)c(C)nc2cc1OC	94%	82%	105%	101%	77%	-4%	109%	105%	-63%	100%	93%	86%	107%	-13%	91%	94%	–	–	–	–	–
COc1cc2cc(Oc3ccc(NC(=O)Nc4ccc(Cl)c(C(F)(F)F)c4)cc3)c(C)nc2cc1OC	–	–	–	–	–	–	–	–	–	–	–	–	–	–	–	–	91%	-5%	-79%	100%	growth at 0.03 µM [21]: 106%; growth at 3 µM [22]: 12%; growth at 30 µM [23]: -92%; growth at 3 µM [24]: 21%; growth at 30 µM [25]: -55%; growth at 30 µM [26]: -64%; growth at 3 µM [27]: 10%; growth at 0.03 µM [28]: 93%; growth at 0.3 µM [29]: 99%; growth at 0.003 µM [30]: 96%; growth at 0.3 µM [31]: 85%; growth at 0.03 µM [32]: 84%; growth at 0.03 µM [33]: 93%; growth at 0.03 µM [34]: 95%
COc1cc2cc(Oc3ccc(NC(=O)Nc4cc(C(F)(F)F)cc(C(F)(F)F)c4)cc3)c(C)nc2cc1OC	100%	97%	98%	92%	55%	-3%	92%	87%	-79%	98%	96%	87%	104%	-91%	54%	90%	–	–	–	–	–
Cc1nc2cc(O)c(O)cc2cc1Oc1ccc(NC(=O)Nc2ccc(Cl)c(Cl)c2)cc1	–	–	–	–	–	–	–	–	–	–	–	–	–	–	–	–	104%	98%	-20%	93%	growth at 0.03 µM [21]: 99%; growth at 3 µM [22]: 76%; growth at 30 µM [23]: -3%; growth at 3 µM [24]: 92%; growth at 30 µM [25]: -2%; growth at 30 µM [26]: 1%; growth at 3 µM [27]: 98%; growth at 0.03 µM [28]: 95%; growth at 0.3 µM [29]: 100%; growth at 0.003 µM [30]: 102%; growth at 0.3 µM [31]: 97%; growth at 0.03 µM [32]: 81%; growth at 0.03 µM [33]: 103%; growth at 0.03 µM [34]: 91%
